# Experimental data reported in patent EP0131252B1, “Thymosin alpha 11” (F. HOFFMANN-LA ROCHE AG, priority 1983, dated 1989).
# What was measured:
# [1] = system: T cell differentiation and function; test: In vivo assay systems designed to measure T cell differentiation and function
# Source text: The present invention relates to the isolation and first complete structural determination of a new polypeptide (thymosin α11 ) isolated from thymosin fraction 5, to pharmaceutically acceptable acid and base addition salts thereof and to pharmaceutical compositions containing this compound or its salts.
# Candida albicans = test: Protection of mice against infection with Candida albicans (daily i.p. treatment, intravenous challenge); type: in vivo
# Source text: The biological activity of thymosin a1 can be determined by utilizing in vivo assays known in the art. Thus, for example, inbred strains of mice are known to vary in their susceptibility to infection with C. albicans. Thus, mice of such strains as C3 H/HeJ or CBA/CaJ are highly susceptible to infection, whereas mice of such strains as C57 BI/10SNJ or C57BI/KsJ were highly resistant to challenge. Since resistance to infection with C. albicans is associated with cell-mediated processes, and therefore with T-lymphocytes, thymic hormones should have an effect on the host response.
# Thymosin fraction 5, thymosin a1 or α11 was injected daily i.p. in graded doses into three different groups of mice, beginning two days before intravenous challenge with 4x10^4 cells of Candida albicans.
# Mice were treated daily with the indicated doses of thymosin fraction 5, thymosin a1 or thymosin α11 and challenged with 4x 10^4 cells of C. a/bicans two days after the start of treatment
# ^* Three mice from each set were sacrificed on days 7,14 and 21 after infection and the values represent
# the average number of organisms in the left kidneys of the nine mice in each set.
substance,measurement,setting,value
AcSer-Asp-Ala-Ala-Val-Asp-Thr-Ser-Ser-Glu-ile-Thr-Thr-Lys-Asp-Leu-Lys-Glu-Lys-Lys-Glu-Val-Val-Glu-Glu-Ala-Glu-Asn-Gly-Arg-Glu-Ala-Pro-Ala-AsnOH [thymosin α11],biological activity compared with thymosin a1,[1],same qualitative and quantitative biological activity as thymosin a1
same,potency relative to fraction 5 in ability to induce resistance to infection with C. albicans,Candida albicans; compared on optimum daily doses,about 30 times
same,daily doses at which most active,"Candida albicans; i.p., daily, resistance to infection with C. albicans",160-320 ng per mouse
same,protection in comparison with control mice,"Candida albicans; injected daily i.p. in graded doses, beginning two days before intravenous challenge with 4x10^4 cells of Candida albicans",provided protection
same,potency of thymosin a1 and thymosin α11 relative to each other,Candida albicans; resistance to infection with C. albicans,approximately equal in potency
